In PMC5218480 (PLoS ONE, 2017):

System: MV-4-11 cells
Assay: Gene expression microarray analysis (Affymetrix PrimeView) and GSEA
Format: cell-based, human
Set-up: RFU PODN (11730768_x_at) / Fold change /veh PODN (11730768_x_at) / RFU LINC00158 (11744669_a_at) / Fold change /veh LINC00158 (11744669_a_at) / RFU DUSP10 (11751237_a_at) / Fold change /veh DUSP10 (11751237_a_at) / RFU ID3 (11757404_x_at) / Fold change /veh ID3 (11757404_x_at) / RFU PLEKHG5 (11737974_s_at) / Fold change /veh PLEKHG5 (11737974_s_at) / RFU LRRC4B (11730491_at) / Fold change /veh LRRC4B (11730491_at) / RFU GIMAP4 (11747438_a_at) / Fold change /veh GIMAP4 (11747438_a_at) / RFU KRT8 (11758183_x_at) / Fold change /veh KRT8 (11758183_x_at) / RFU CNN1 (11734310_a_at) / Fold change /veh CNN1 (11734310_a_at) / RFU VPS37D (11726825_at) / Fold change /veh VPS37D (11726825_at) / RFU C10orf10 (11716522_x_at) / Fold change /veh C10orf10 (11716522_x_at) / RFU KIR2DL2 /// KIR2DL4 /// KIR2DL5A /// KIR2DL5B /// KIR2DS1 /// KIR2DS2 /// KIR2DS3 /// KIR2DS4 /// KIR3DL3 /// KIR3DL3 /// KIR3DS1 (11738374_at) / Fold change /veh KIR2DL2 /// KIR2DL4 /// KIR2DL5A /// KIR2DL5B /// KIR2DS1 /// KIR2DS2 /// KIR2DS3 /// KIR2DS4 /// KIR3DL3 /// KIR3DL3 /// KIR3DS1 (11738374_at) / RFU C1QL1 (11718748_at) / Fold change /veh C1QL1 (11718748_at) / RFU TMPRSS4 (11747572_a_at) / Fold change /veh TMPRSS4 (11747572_a_at) / RFU HAMP (11756126_x_at) / Fold change /veh HAMP (11756126_x_at) / RFU RNFT2 (11725882_a_at) / Fold change /veh RNFT2 (11725882_a_at) / RFU NR4A2 (11747474_a_at) / Fold change /veh NR4A2 (11747474_a_at) / RFU ABCC12 (11746883_a_at) / Fold change /veh ABCC12 (11746883_a_at) / RFU TMEM136 (11760407_x_at) / Fold change /veh TMEM136 (11760407_x_at) / RFU CLDN22 /// WWC2 (11732394_at) / Fold change /veh CLDN22 /// WWC2 (11732394_at) / RFU HLA-DPB1 (11760878_x_at) / Fold change /veh HLA-DPB1 (11760878_x_at) / RFU SPINT1 (11716480_a_at) / Fold change /veh SPINT1 (11716480_a_at) / RFU GAP43 (11754022_s_at) / Fold change /veh GAP43 (11754022_s_at) / RFU A4GNT (11735810_at) / Fold change /veh A4GNT (11735810_at) / RFU PRB3 (11715151_x_at) / Fold change /veh PRB3 (11715151_x_at) / RFU TUBB4B (11761932_at) / Fold change /veh TUBB4B (11761932_at) / RFU CAPN14 (11732068_a_at) / Fold change /veh CAPN14 (11732068_a_at) / RFU TMCC2 (11721928_a_at) / Fold change /veh TMCC2 (11721928_a_at) / RFU IRGQ (11745062_a_at) / Fold change /veh IRGQ (11745062_a_at) / RFU FAM174B (11720279_a_at) / Fold change /veh FAM174B (11720279_a_at) / RFU TMPRSS4 (11748680_a_at) / Fold change /veh TMPRSS4 (11748680_a_at) / RFU FAM212B (11763350_a_at) / Fold change /veh FAM212B (11763350_a_at) / RFU PLEKHG5 (11743358_a_at) / Fold change /veh PLEKHG5 (11743358_a_at) / RFU ZSCAN30 (11745921_a_at) / Fold change /veh ZSCAN30 (11745921_a_at) / RFU CMKLR1 (11741424_a_at) / Fold change /veh CMKLR1 (11741424_a_at) / RFU LOC101060620 /// MAPK8IP1 (11723275_at) / Fold change /veh LOC101060620 /// MAPK8IP1 (11723275_at) / RFU SPTSSB (11747773_x_at) / Fold change /veh SPTSSB (11747773_x_at) / RFU PRSS12 (11739890_at) / Fold change /veh PRSS12 (11739890_at) / RFU BIN1 (11741810_x_at) / Fold change /veh BIN1 (11741810_x_at) / RFU WNT11 (11732464_a_at) / Fold change /veh WNT11 (11732464_a_at) / RFU C10orf10 (11716521_a_at) / Fold change /veh C10orf10 (11716521_a_at) / RFU C5orf56 (11738089_at) / Fold change /veh C5orf56 (11738089_at) / RFU CYB561 (11721691_x_at) / Fold change /veh CYB561 (11721691_x_at) / RFU ANKRD19P (11752326_a_at) / Fold change /veh ANKRD19P (11752326_a_at) / RFU OR2T12 /// OR2T33 /// OR2T8 (11738714_s_at) / Fold change /veh OR2T12 /// OR2T33 /// OR2T8 (11738714_s_at) / RFU VCAN (11748164_a_at) / Fold change /veh VCAN (11748164_a_at) / RFU JSRP1 (11732532_at) / Fold change /veh JSRP1 (11732532_at) / RFU KRTAP10-11 (11738290_x_at) / Fold change /veh KRTAP10-11 (11738290_x_at) / RFU MYO3A (11730013_a_at) / Fold change /veh MYO3A (11730013_a_at) / RFU EBF3 (11725865_a_at) / Fold change /veh EBF3 (11725865_a_at) / RFU CAMK2N1 (11719241_x_at) / Fold change /veh CAMK2N1 (11719241_x_at) / RFU C5orf56 (11738088_a_at) / Fold change /veh C5orf56 (11738088_a_at) / RFU OLFML3 (11715873_a_at) / Fold change /veh OLFML3 (11715873_a_at) / RFU LOC100653217 /// NTM (11731650_a_at) / Fold change /veh LOC100653217 /// NTM (11731650_a_at) / RFU MAPK11 (11762145_a_at) / Fold change /veh MAPK11 (11762145_a_at) / RFU FIZ1 (11724087_x_at) / Fold change /veh FIZ1 (11724087_x_at) / RFU OASL (11726364_x_at) / Fold change /veh OASL (11726364_x_at) / RFU SOX15 (11748057_x_at) / Fold change /veh SOX15 (11748057_x_at) / RFU CD79A (11719716_a_at) / Fold change /veh CD79A (11719716_a_at) / RFU HIST1H1D (11736915_at) / Fold change /veh HIST1H1D (11736915_at) / RFU CASKIN2 (11723855_a_at) / Fold change /veh CASKIN2 (11723855_a_at) / RFU LOC730098 (11760151_x_at) / Fold change /veh LOC730098 (11760151_x_at) / RFU OR4N2 (11742367_at) / Fold change /veh OR4N2 (11742367_at) / RFU PRRT2 (11749266_a_at) / Fold change /veh PRRT2 (11749266_a_at) / RFU SNX32 (11753110_a_at) / Fold change /veh SNX32 (11753110_a_at) / RFU CDHR5 (11726645_a_at) / Fold change /veh CDHR5 (11726645_a_at) / RFU RCAN1 (11760418_a_at) / Fold change /veh RCAN1 (11760418_a_at) / RFU FAM167A (11723789_a_at) / Fold change /veh FAM167A (11723789_a_at) / RFU FAM26E (11764081_at) / Fold change /veh FAM26E (11764081_at) / RFU ISYNA1 (11749810_s_at) / Fold change /veh ISYNA1 (11749810_s_at) / RFU ACY1 (11761880_at) / Fold change /veh ACY1 (11761880_at) / RFU 11764098_at / Fold change /veh 11764098_at / RFU SAMD14 (11745864_x_at) / Fold change /veh SAMD14 (11745864_x_at) / RFU NPB (11741838_a_at) / Fold change /veh NPB (11741838_a_at) / RFU TMPRSS6 (11731388_a_at) / Fold change /veh TMPRSS6 (11731388_a_at) / RFU KRTAP10-2 (11738614_at) / Fold change /veh KRTAP10-2 (11738614_at) / RFU ARHGAP8 /// PRR5-ARHGAP8 (11727945_x_at) / Fold change /veh ARHGAP8 /// PRR5-ARHGAP8 (11727945_x_at) / RFU KRTAP5-7 /// NADSYN1 (11734609_at) / Fold change /veh KRTAP5-7 /// NADSYN1 (11734609_at) / RFU RASL12 (11751679_a_at) / Fold change /veh RASL12 (11751679_a_at) / RFU CDKN2B (11736163_a_at) / Fold change /veh CDKN2B (11736163_a_at) / RFU PRF1 (11729649_at) / Fold change /veh PRF1 (11729649_at) / RFU, ZNF638 /// ZNF638-IT1 / Fold change vs veh, ZNF638 /// ZNF638-IT1 / RFU, PANK3 / Fold change vs veh, PANK3 / RFU, SH3YL1 / Fold change vs veh, SH3YL1 / RFU, ZEB2 / Fold change vs veh, ZEB2 / RFU, NRIP1 / Fold change vs veh, NRIP1 / RFU, PTTG1IP / Fold change vs veh, PTTG1IP / RFU, CAPN2 / Fold change vs veh, CAPN2 / RFU, MED14 / Fold change vs veh, MED14 / RFU, SNORA58 / Fold change vs veh, SNORA58 / RFU, C1orf63 / Fold change vs veh, C1orf63 / RFU, LRRFIP1 / Fold change vs veh, LRRFIP1 / RFU, NDUFAF7 / Fold change vs veh, NDUFAF7 / RFU, SLC12A2 / Fold change vs veh, SLC12A2 / RFU, IBTK / Fold change vs veh, IBTK / RFU, ESF1 / Fold change vs veh, ESF1 / Fold change vs veh, TMEM50B / RFU, TAOK1 / Fold change vs veh, TAOK1 / RFU, ACBD3 / Fold change vs veh, ACBD3 / RFU, TMA16 / Fold change vs veh, TMA16 / RFU, RWDD3 / Fold change vs veh, RWDD3 / RFU, BCAT1 / Fold change vs veh, BCAT1 / RFU, EDEM3 / Fold change vs veh, EDEM3 / RFU, TMEM33 / Fold change vs veh, TMEM33 / RFU, WDR75 / Fold change vs veh, WDR75 / RFU, AHCTF1 / Fold change vs veh, AHCTF1 / RFU, TFRC / Fold change vs veh, TFRC / RFU, ZDHHC17 / Fold change vs veh, ZDHHC17 / RFU, NOM1 / Fold change vs veh, NOM1 / RFU, ARL8B / Fold change vs veh, ARL8B / RFU, ZBTB11 / Fold change vs veh, ZBTB11 / RFU, TAMM41 / Fold change vs veh, TAMM41 / RFU, KIAA1704 /// LOC100996395 / Fold change vs veh, KIAA1704 /// LOC100996395 / RFU, ING1 / Fold change vs veh, ING1 / RFU, TRMT61B / Fold change vs veh, TRMT61B / RFU, FUBP3 / Fold change vs veh, FUBP3 / RFU, TP53 / Fold change vs veh, TP53 / RFU, TNKS2 / Fold change vs veh, TNKS2 / RFU, ZFP14 / Fold change vs veh, ZFP14 / RFU, ACTR2 / Fold change vs veh, ACTR2 / RFU, PPP3R1 / Fold change vs veh, PPP3R1 / RFU, PIK3R1 / Fold change vs veh, PIK3R1 / RFU, HNRNPA1 / Fold change vs veh, HNRNPA1 / RFU, RNF170 / Fold change vs veh, RNF170 / RFU, ZNF28 / Fold change vs veh, ZNF28 / RFU, RNGTT / Fold change vs veh, RNGTT / RFU, OGT / Fold change vs veh, OGT / RFU, BRD1 / Fold change vs veh, BRD1 / RFU, MARS / Fold change vs veh, MARS / RFU, ZNF655 / Fold change vs veh, ZNF655 / RFU, FAHD1 / Fold change vs veh, FAHD1 / RFU, BDP1 / Fold change vs veh, BDP1 / RFU, LRRCC1 / Fold change vs veh, LRRCC1 / RFU, ARID1A / Fold change vs veh, ARID1A / RFU, ZNF146 / Fold change vs veh, ZNF146 / RFU, ZNF330 / Fold change vs veh, ZNF330 / RFU, GPN3 / Fold change vs veh, GPN3 / RFU, C9orf123 / Fold change vs veh, C9orf123 / RFU, N4BP2L2 / Fold change vs veh, N4BP2L2 / RFU, ARFIP1 / Fold change vs veh, ARFIP1 / RFU, FAM179B / Fold change vs veh, FAM179B / RFU, BCL10 / Fold change vs veh, BCL10 / RFU, UHRF1BP1L / Fold change vs veh, UHRF1BP1L / RFU, BET1 / Fold change vs veh, BET1 / RFU, CNOT2 / Fold change vs veh, CNOT2 / RFU, ZNF268 / Fold change vs veh, ZNF268 / Fold change vs veh, ZNF507 / RFU, DGCR2 / Fold change vs veh, DGCR2 / RFU, WDSUB1 / Fold change vs veh, WDSUB1 / Fold change vs veh, HSP90B1 /// MIR3652 / RFU, ADSS / Fold change vs veh, ADSS / RFU, GK / Fold change vs veh, GK / RFU, ZNF148 / Fold change vs veh, ZNF148 / RFU, TAF9 / Fold change vs veh, TAF9 / RFU, SLC1A5 / Fold change vs veh, SLC1A5 / RFU, SLMO2 / Fold change vs veh, SLMO2 / RFU, ABCC4 / Fold change vs veh, ABCC4 / RFU, LOC101060439 /// RAP1B / Fold change vs veh, LOC101060439 /// RAP1B / RFU, RFX7 / Fold change vs veh, RFX7 / RFU, GTPBP10 / Fold change vs veh, GTPBP10 / RFU, CNEP1R1 / Fold change vs veh, CNEP1R1 / RFU, BIVM-ERCC5 /// ERCC5 / Fold change vs veh, BIVM-ERCC5 /// ERCC5 / RFU, ILF3 / Fold change vs veh, ILF3 / RFU 11762660_at / Fold change /veh 11762660_at / RFU VCAN (11757783_s_at) / Fold change /veh VCAN (11757783_s_at) / RFU DDX43 (11728927_at) / Fold change /veh DDX43 (11728927_at) / RFU KRT8 (11758188_x_at) / Fold change /veh KRT8 (11758188_x_at) / RFU NKD1 (11759106_at) / Fold change /veh NKD1 (11759106_at) / RFU SRD5A1 (11742802_a_at) / Fold change /veh SRD5A1 (11742802_a_at) / RFU TPSAB1 /// TPSB2 (11721975_s_at) / Fold change /veh TPSAB1 /// TPSB2 (11721975_s_at) / RFU GSTM3 (11746129_a_at) / Fold change /veh GSTM3 (11746129_a_at) / RFU IL23R (11737362_x_at) / Fold change /veh IL23R (11737362_x_at) / RFU TMEM51 (11727254_a_at) / Fold change /veh TMEM51 (11727254_a_at) / RFU PIWIL2 (11732686_x_at) / Fold change /veh PIWIL2 (11732686_x_at) / RFU ORM1 (11744905_x_at) / Fold change /veh ORM1 (11744905_x_at) / RFU CCDC152 (11743942_at) / Fold change /veh CCDC152 (11743942_at) / RFU ECM1 (11717891_a_at) / Fold change /veh ECM1 (11717891_a_at) / RFU IL23R (11748794_a_at) / Fold change /veh IL23R (11748794_a_at) / RFU TNFAIP8L3 (11732012_x_at) / Fold change /veh TNFAIP8L3 (11732012_x_at) / RFU MBOAT4 (11741988_at) / Fold change /veh MBOAT4 (11741988_at) / RFU 11764193_at / Fold change /veh 11764193_at / RFU TMEM53 (11763286_at) / Fold change /veh TMEM53 (11763286_at) / RFU MAGEB2 (11727129_at) / Fold change /veh MAGEB2 (11727129_at) / RFU TMEM200A (11744735_a_at) / Fold change /veh TMEM200A (11744735_a_at) / RFU CCDC152 (11751479_a_at) / Fold change /veh CCDC152 (11751479_a_at) / RFU FAM211A (11726209_a_at) / Fold change /veh FAM211A (11726209_a_at) / RFU RGS16 (11746705_a_at) / Fold change /veh RGS16 (11746705_a_at) / RFU VCAN (11755009_s_at) / Fold change /veh VCAN (11755009_s_at) / RFU RHOB (11743442_s_at) / Fold change /veh RHOB (11743442_s_at) / RFU RGS16 (11720943_a_at) / Fold change /veh RGS16 (11720943_a_at) / RFU RGS16 (11720944_at) / Fold change /veh RGS16 (11720944_at) / RFU, VPS4B / Fold change vs veh, VPS4B / RFU, CREB1 / Fold change vs veh, CREB1 / RFU, DNAJC13 / Fold change vs veh, DNAJC13 / RFU, GNAQ / Fold change vs veh, GNAQ / RFU, CDK5R1 / Fold change vs veh, CDK5R1 / RFU, ZRANB3 / Fold change vs veh, ZRANB3 / RFU, CUL4A / Fold change vs veh, CUL4A / RFU, CCNY / Fold change vs veh, CCNY / RFU, UFL1 / Fold change vs veh, UFL1 / RFU, COG3 / Fold change vs veh, COG3 / RFU, DIAPH2 / Fold change vs veh, DIAPH2 / RFU, SKA2 / Fold change vs veh, SKA2 / RFU, AFF3 / Fold change vs veh, AFF3 / RFU, LMF1 / Fold change vs veh, LMF1 / RFU, IPO11 / Fold change vs veh, IPO11 / RFU, DFFB / Fold change vs veh, DFFB / RFU, FOXP1 / Fold change vs veh, FOXP1 / RFU, CARD8 / Fold change vs veh, CARD8 / RFU, STRN3 / Fold change vs veh, STRN3 / RFU, ADK / Fold change vs veh, ADK / RFU, RASSF2 / Fold change vs veh, RASSF2 / RFU, WIPF1 / Fold change vs veh, WIPF1 / RFU, LARP1B / Fold change vs veh, LARP1B / RFU, RASA1 / Fold change vs veh, RASA1 / RFU, RB1 / Fold change vs veh, RB1 / RFU, PPFIA1 / Fold change vs veh, PPFIA1 / RFU, MAT2A / Fold change vs veh, MAT2A / RFU, CCT5 / Fold change vs veh, CCT5 / RFU, WDR92 / Fold change vs veh, WDR92 / RFU, CUX1 / Fold change vs veh, CUX1 / RFU, TTC7A / Fold change vs veh, TTC7A / RFU, TMEM135 / Fold change vs veh, TMEM135 / RFU, DEPTOR / Fold change vs veh, DEPTOR / RFU, CPM / Fold change vs veh, CPM / RFU, DNAJB6 / Fold change vs veh, DNAJB6 / RFU, CACNA2D3 / Fold change vs veh, CACNA2D3 / RFU, DTX4 / Fold change vs veh, DTX4 / RFU, TFCP2 / Fold change vs veh, TFCP2 / RFU, GMCL1 /// GMCL1P1 / Fold change vs veh, GMCL1 /// GMCL1P1 / RFU, AEBP2 / Fold change vs veh, AEBP2 / RFU, SNHG1 /// SNORD22 /// SNORD25 /// SNORD26 /// SNORD27 /// SNORD28 /// SNORD29 /// SNORD31 / Fold change vs veh, SNHG1 /// SNORD22 /// SNORD25 /// SNORD26 /// SNORD27 /// SNORD28 /// SNORD29 /// SNORD31 / Fold change (Aza/veh), C12orf56 (ProbeSet 11735607_a_at) / Fold change (ACY-1035/veh), C12orf56 (ProbeSet 11735607_a_at) / Fold change (Aza/veh), FGFR1OP (ProbeSet 11751329_s_at) / Fold change (ACY-1035/veh), FGFR1OP (ProbeSet 11751329_s_at) / Fold change (Aza/veh), VPS36 (ProbeSet 11739960_a_at) / Fold change (ACY-1035/veh), VPS36 (ProbeSet 11739960_a_at) / RFU SYPL1 (11715823_x_at) / Fold change /veh SYPL1 (11715823_x_at) / RFU IGFBP7 (11715501_s_at) / Fold change /veh IGFBP7 (11715501_s_at) / RFU REEP3 (11722064_at) / Fold change /veh REEP3 (11722064_at) / RFU IGLL1 (11728026_x_at) / Fold change /veh IGLL1 (11728026_x_at): dose or concentration left out as unconfirmed
Settings: ProbeSet 11758397_s_at; LIST B

In the case of `Nc1ccc(-c2cccs2)cc1NC(=O)c1ccc2c(c1)cc(C1CC1)n2CCN1CCOCC1` [ACY-1035], the “RFU, RNF170” value is reported as 143.47 RFU.
